These results are taken from publication PMC7587356, “High-Throughput Screening for Inhibitors of the SARS-CoV-2 Protease Using a FRET-Biosensor” (Molecules, 2020).

Where a name gives a salt, the structure may show the parent alone. Read-outs that look alike come from different tables or passages of the source.

The target in the experiment is SARS-CoV-2 3CLpro (Severe acute respiratory syndrome coronavirus 2, UniProt P0DTD1). Nature of the experiment: biochemical. To be noted: for inhibition at 5 µM: 4 h; for mean (LOPAC screen with protease) / Replicate_1 (LOPAC screen with protease) / Replicate_2 (LOPAC screen with protease): primary screen at 5 µM. Also noted: Replicate_1 / Replicate_2 / mean / mean (LOPAC_screen_w_protease): unit not given here. The format is biochemical.

[1] abbreviates: sheet LOPAC_screen_w_protease, primary screen with protease, mean of two replicates.
The mark [2] stands for this setting: sheet LOPAC_screen_w_protease, primary screen with protease, replicate 1.
Setting [3] is: sheet LOPAC_screen_w_protease, primary screen with protease, replicate 2.
Setting [4] is: sheet LOPAC_screen_w_protease, LOPAC1280 primary screen with protease, 5 µM compound, mean of the two replicates.
Setting [5] is: sheet LOPAC_screen_w_protease, LOPAC1280 primary screen with protease, 5 µM compound, replicate 1.
[6] abbreviates: sheet LOPAC_screen_w_protease, LOPAC1280 primary screen with protease, 5 µM compound, replicate 2.
[7] abbreviates: sheet LOPAC_screen_w_protease, LOPAC1280 at 5 µM, mean of two replicates, read-out: mean.
Setting [8] is: sheet LOPAC_screen_w_protease, LOPAC1280 at 5 µM, replicate 1, read-out: Replicate_1.
The mark [9] stands for this setting: sheet LOPAC_screen_w_protease, LOPAC1280 at 5 µM, replicate 2, read-out: Replicate_2.
Setting [10] is: LOPAC1280 primary screen with protease, 5 µM compound, replicate 1, read-out: Replicate_1 (LOPAC_screen_w_protease).
Where [11] appears, read: LOPAC1280 primary screen with protease, 5 µM compound, replicate 2, read-out: Replicate_2 (LOPAC_screen_w_protease).
Where [12] appears, read: LOPAC1280 primary screen with protease, 5 µM compound, mean of two replicates.
Setting [13] is: LOPAC1280 primary screen with protease, 5 µM compound, mean of the two replicates.
[14] abbreviates: sheet LOPAC_screen_w_protease, mean of two replicates.
[15] abbreviates: sheet LOPAC_screen_w_protease, replicate 1.
The mark [16] stands for this setting: sheet LOPAC_screen_w_protease, replicate 2.
Setting [17] is: sheet LOPAC_screen_w_protease, LOPAC1280 at 5 µM, mean of two replicates.
Where [18] appears, read: sheet LOPAC_screen_w_protease, LOPAC1280 at 5 µM, replicate 1.
[19] abbreviates: sheet LOPAC_screen_w_protease, LOPAC1280 at 5 µM, replicate 2.
[20] abbreviates: LOPAC1280 primary screen with protease, 5 µM compound, replicate 1.
Where [21] appears, read: LOPAC1280 primary screen with protease, 5 µM compound, replicate 2.

Under setting [1], `Nc1ccc(N2C(=O)c3ccccc3C2=O)c(Cl)c1` [N-(4-Amino-2-chlorophenyl)phthalimide] displayed a mean of 2.38. Under setting [2], this molecule displayed a Replicate_1 of 2.0208. Under setting [3], the Replicate_2 was found to be 2.74.
Under setting [4], `CSc1nc(N)c2ncn([C@@H]3O[C@H](COP(=O)(O)OP(=O)(O)O)[C@@H](O)[C@H]3O)c2n1.[Na].[Na].[Na]` gave a mean of 4.674. Besides, the Replicate_1 under setting [5] is on record as 4.609. The same molecule came in with a Replicate_2 under setting [6] of 4.739.
As for `C#CCN[C@H](C)Cc1ccccc1.Cl` [R-(-)-Desmethyldeprenyl hydrochloride], the “Replicate_1 (LOPAC_screen_w_protease)” value was found to be 3.419, the “Replicate_2 (LOPAC_screen_w_protease)” value is 0.5348 and the “mean (LOPAC_screen_w_protease)” value is given as 1.9771.
Take `c1ccc2c(c1)[I+]c1ccccc1-2` [Diphenyleneiodonium chloride]: the inhibition at 5 µM is, setting by setting: (read-out: Replicate_1) 3.49%; (read-out: Replicate_2) 2.49%; (read-out: mean) 2.99%.
As to `CC(C)(C)NCC(O)c1ccccc1Cl` (stereo not drawn) [Tulobuterol hydrochloride], the inhibition at 5 µM under setting [7] was 0.895%, the inhibition at 5 µM under setting [8] is 2.46% and the inhibition at 5 µM under setting [9] was -0.673%.
On to `CC(C)NP(=O)(NC(C)C)OP(=O)(NC(C)C)NC(C)C` [Tetraisopropyl pyrophosphoramide], for which the inhibition at 5 µM by setting is: (read-out: Replicate_1) 1.18%; (read-out: Replicate_2) -0.275%; (read-out: mean) 0.452%.
Turning to `CN(C)CCC=C1c2ccccc2COc2ccccc21` [Doxepin hydrochloride], the inhibition at 5 µM amounted to 1.2% under setting [10] and 1.88% under setting [11]. Also, the “mean (LOPAC_screen_w_protease)” value under setting [12] was 1.543.
`COc1ccc2c(c1)c(CC(=O)O)c(C)n2C(=O)c1ccccc1`: the mean under setting [1] is 2.541. The same molecule showed a Replicate_1 under setting [2] of 2.008. This molecule registered a Replicate_2 under setting [3] of 3.073.
As to `Oc1cc2c(cc1O)[C@H]1c3ccccc3CN[C@@H]1CC2` (racemic) [Dihydrexidine hydrochloride], the inhibition at 5 µM is, setting by setting: (read-out: Replicate_1 (LOPAC screen with protease)) 96.2%; (read-out: Replicate_2 (LOPAC screen with protease)) 98.8%; (read-out: mean (LOPAC screen with protease)) 97.5%.
In the case of `CCCCCCC(C)(C)c1ccc([C@@H]2C[C@H](O)CC[C@H]2CCCO)c(O)c1` [CP55940], the inhibition at 5 µM (sheet LOPAC_screen_w_protease, primary screen with protease, mean of two replicates, read-out: mean) is 2.22%; the inhibition at 5 µM (sheet LOPAC_screen_w_protease, primary screen with protease, replicate 1, read-out: Replicate_1) came out at 1.74%; the inhibition at 5 µM (sheet LOPAC_screen_w_protease, primary screen with protease, replicate 2, read-out: Replicate_2) stood at 2.71%.
In the case of `CN1C[C@H](C(=O)N[C@]2(C)O[C@@]3(O)[C@@H]4CCCN4C(=O)[C@H](Cc4ccccc4)N3C2=O)C[C@@H]2c3cccc4[nH]cc(c34)C[C@H]21` [Dihydroergotamine methanesulfonate], the inhibition at 5 µM under setting [10] was 2.09% and the inhibition at 5 µM under setting [11] was 1.52%. In addition, the “mean (LOPAC_screen_w_protease)” value under setting [13] amounted to 1.805.
For the molecule `CC(N)C(O)c1ccc(O)c(O)c1` (single isomer, unassigned; (-)) [(-)-alpha-Methylnorepinephrine], the “mean (LOPAC screen with protease)” value under setting [14] was determined as 8.627. Besides, the “Replicate_1 (LOPAC screen with protease)” value under setting [15] amounted to 8.881. Also, the “Replicate_2 (LOPAC screen with protease)” value under setting [16] worked out at 8.372.
As for `CC(N)=NCc1cccc(CN)c1.Cl.Cl` [1400W dihydrochloride], the mean (sheet LOPAC_screen_w_protease, LOPAC1280 primary screen at 5 µM, with protease, mean of the two replicates) turned out to be 0.5066. Where the note is “sheet LOPAC_screen_w_protease, LOPAC1280 primary screen at 5 µM, with protease, replicate 1”, this molecule gave a Replicate_1 of 0.5348. Further, where the note is “sheet LOPAC_screen_w_protease, LOPAC1280 primary screen at 5 µM, with protease, replicate 2”, the Replicate_2 was 0.4785.
Regarding `CCNC(=O)[C@H]1O[C@@H](n2cnc3c(NCc4ccccc4)ncnc32)[C@H](O)[C@@H]1O` [N6-Benzyl-5'-N-ethylcarboxamidoadenosine], the mean under setting [17] is recorded as 1.239. The same molecule registered a Replicate_1 under setting [18] of -0.1675. Further, the Replicate_2 under setting [19] was 2.645.
`C[C@]12CC[C@@H](O)C[C@@H]1CC[C@@H]1[C@@H]2CC[C@]2(C)[C@@H](O)CC[C@@H]12` [5alpha-Androstane-3alpha,17beta-diol]: under setting [12], the “mean (LOPAC_screen_w_protease)” value amounted to 1.678. In addition, under setting [20], the “Replicate_1 (LOPAC_screen_w_protease)” value worked out at 0.2579. Also, the “Replicate_2 (LOPAC_screen_w_protease)” value under setting [21] amounted to 3.098.
Regarding `COc1ccc2c(c1)c(CC(=O)O)c(C)n2C(=O)c1ccc(Cl)cc1` [Indomethacin], the Replicate_1 was 3.273, the Replicate_2 is 1.395 and the mean is 2.334.
`Nc1ncnc2c1ncn2C1CCCC1` [9-cyclopentyladenine]: the mean (sheet LOPAC_screen_w_protease, primary screen with protease, compound at 5 µM, mean of two replicates) was found to be 2.587. This molecule also returned a Replicate_1 (sheet LOPAC_screen_w_protease, primary screen with protease, compound at 5 µM, replicate 1) of 2.53. This molecule came in with a Replicate_2 (sheet LOPAC_screen_w_protease, primary screen with protease, compound at 5 µM, replicate 2) of 2.643.
As for `N#C/C(=C\c1ccc(O)c(O)c1)C(=O)c1ccc(O)c(O)c1` [Tyrphostin AG 538], under setting [12], the “mean (LOPAC_screen_w_protease)” value is 1.741. The “Replicate_1 (LOPAC_screen_w_protease)” value under setting [20] turned out to be 1.926. Further, the “Replicate_2 (LOPAC_screen_w_protease)” value under setting [21] was 1.555.
For `O=C1NC(=O)C(c2ccccc2)(c2ccccc2)N1` [Phenytoin sodium], the inhibition at 5 µM is, setting by setting: under setting [10], 1.2%; under setting [11], 2.6%. Also, the “mean (LOPAC_screen_w_protease)” value under setting [13] is given as 1.899.
Molecule `Clc1ccc(N2C[C@H]3CC[C@@H](C2)N3)nn1` [DBO-83] had a mean under setting [4] of 6.059. The Replicate_1 under setting [5] stood at 7.536. The Replicate_2 under setting [6] is on record as 4.581.
For the molecule `Cc1cccc(C)c1OCC(N)C(C)C.I` (stereo not drawn) [R(-)-Me5], the “mean (LOPAC screen with protease)” value under setting [14] is 9.695. Also, the “Replicate_1 (LOPAC screen with protease)” value under setting [15] was 9.8488. Under setting [16], the “Replicate_2 (LOPAC screen with protease)” value was 9.541.
Molecule `COc1ccccc1N1CCN(CCN(C(=O)C2CCCCC2)c2ccccn2)CC1.O=C(O)/C=C\C(=O)O` [WAY-100635 maleate] registered a mean under setting [17] of 1.0596. The molecule further yielded a Replicate_1 under setting [18] of 1.502. The Replicate_2 under setting [19] amounted to 0.6169.
As for `CC(C(=O)O)c1ccc(CC2CCCC2=O)cc1` (stereo not drawn) [loxoprofen], the inhibition at 5 µM under setting [7] was 1.2%, the inhibition at 5 µM under setting [8] worked out at 0.313% and the inhibition at 5 µM under setting [9] came out at 2.09%.
Take `CCCn1c(=O)c2[nH]c(-c3ccc(S(=O)(=O)O)cc3)nc2n(CCC)c1=O` [1,3-Dipropyl-8-p-sulfophenylxanthine]: the “mean (LOPAC screen with protease)” value under setting [14] is 7.8949. Also, under setting [15], the “Replicate_1 (LOPAC screen with protease)” value worked out at 7.582. For the same molecule, the “Replicate_2 (LOPAC screen with protease)” value under setting [16] was determined as 8.208.
As to `NCCCCN` [Putrescine dihydrochloride], the “mean (LOPAC_screen_w_protease)” value amounted to 2.055. In addition, the inhibition at 5 µM (read-out: Replicate_1 (LOPAC_screen_w_protease)) is 4.37%. The inhibition at 5 µM (read-out: Replicate_2 (LOPAC_screen_w_protease)) was -0.258%.
As to `CCc1cccc2c3c([nH]c12)C(CC)(CC(=O)O)OCC3` (stereo not drawn) [Etodolac], the inhibition at 5 µM by setting is: (sheet LOPAC_screen_w_protease, LOPAC1280 primary screen at 5 µM, with protease, mean of the two replicates, read-out: mean) 0.659%; (sheet LOPAC_screen_w_protease, LOPAC1280 primary screen at 5 µM, with protease, replicate 1, read-out: Replicate_1) 1.48%; (sheet LOPAC_screen_w_protease, LOPAC1280 primary screen at 5 µM, with protease, replicate 2, read-out: Replicate_2) -0.164%.
Consider `Clc1ccccc1C(c1ccccc1)(c1ccccc1)n1ccnc1` [Clotrimazole], for which the inhibition at 5 µM is, setting by setting: (read-out: Replicate_1) 3.08%; (read-out: Replicate_2) 3.07%; (read-out: mean) 3.07%.
As for `CC(C)N(CCC(=O)c1ccc2ccccc2c1)Cc1ccccc1.Cl` [ZM 39923 hydrochloride], the “mean (LOPAC screen with protease)” value under setting [14] amounted to 93.4745. For the same molecule, under setting [15], the “Replicate_1 (LOPAC screen with protease)” value stood at 92.2854. In addition, the “Replicate_2 (LOPAC screen with protease)” value under setting [16] is 94.6636.
`Cc1scc2c1N(C(=O)CN1CCN(C)CC1)c1ccccc1NC2=O` [Telenzepine dihydrochloride]: the inhibition at 5 µM by setting is: (sheet LOPAC_screen_w_protease, primary screen with protease, 5 µM, mean of two replicates, read-out: mean) 0.413%; (sheet LOPAC_screen_w_protease, primary screen with protease, 5 µM, replicate 1, read-out: Replicate_1) -0.915%; (sheet LOPAC_screen_w_protease, primary screen with protease, 5 µM, replicate 2, read-out: Replicate_2) 1.74%.
Consider `CCOC(=O)[N-]c1cn(N2CCOCC2)n[o+]1` [Molsidomine], for which the inhibition at 5 µM was 2.83% (sheet LOPAC_screen_w_protease, primary screen with protease, compound at 5 µM, mean of two replicates, read-out: mean); 1.44% (sheet LOPAC_screen_w_protease, primary screen with protease, compound at 5 µM, replicate 1, read-out: Replicate_1); 4.23% (sheet LOPAC_screen_w_protease, primary screen with protease, compound at 5 µM, replicate 2, read-out: Replicate_2).
